Measurements from patent US20190116835A1, “Sweetness and Taste Improvement of Steviol Glycoside or Mogroside Sweeteners with Flavonids” (The Coca-Cola Company, priority 2016, published 2019).

How the values were obtained:
[1] = Taste evaluation by trained panelists: sweetness enhancement of Siamenoside I, compared against sucrose beverages; assay type: in vivo, human; conditions: beverage containing 150 ppm Siamenoside I in acidic water, no Test Mixture 1
Procedure: The ability of Text Mixture 1 to enhance the sweetness of Siamenoside I was evaluated.
(§1) Sample were prepared with the following ingredients:
(§2) Ingredients were added to water or water with Test Mixture 1 while stirring until solids were visibly dissolved and the sample was poured into a glass bottle and stored at 4° C.
The trained panelists then compared the taste and sweetness profiles of (i) the beverage containing 150 ppm Siamenoside I (Table 3) and (ii) the beverage containing 40 ppm Test Mixture 1 and 150 ppm Siamenoside I (Table 4) against the 6%, 8%, and 10% sucrose beverages (Table 5).
(§3) Bottles were removed from the refrigerator and about 25 ml of beverage was poured into 4 oz-plastic cups. Panelists were given mineral water to rinse their mouth before and between tastings. Unsalted crackers were also given to panelists to eat followed by rinsing their mouth with mineral water before tasting the next sample. Panelists were instructed to sip, evaluate the sweetness, and then spit the samples in cups provided for that purpose.

[2] = Taste evaluation by trained panelists: sweetness enhancement of Rebaudioside M, compared against sucrose beverages; assay type: in vivo, human; conditions: beverage containing 150 ppm Rebaudioside M in acidic water, no Test Mixture 1
Procedure: The ability of the following compounds to enhance the sweetness of Rebaudioside M was evaluated:
as §1, §2
Trained panelists compared the taste and sweetness profiles of (i) the beverage containing 150 ppm Rebaudioside M (Table 3) and (ii) the beverage containing 40 ppm Test Mixture 1 and 150 ppm Rebaudioside M (Table 4) against the 6%, 8%, and 10% sucrose beverages (Table 5).
as §3

| Compound | sweetness, equivalent to sucrose beverages [1] | sweetness, as sweet as sucrose beverage [2] |
| --- | --- | --- |
| C[C@H](CC[C@@H](O[C@@H]1O[C@H](CO[C@@H]2O[C@H](CO)[C@@H](O)[C@H](O)[C@H]2O)[C@@H](O)[C@H](O)[C@H]1O[C@@H]1O[C@H](CO)[C@@H](O)[C@H](O)[C@H]1O)C(C)(C)O)[C@H]1CC[C@@]2(C)[C@@H]3CC=C4[C@@H](CC[C@H](O[C@@H]5O[C@H](CO)[C@@H](O)[C@H](O)[C@H]5O)C4(C)C)[C@]3(C)[C@H](O)C[C@]12C [Siamenoside I, siamenoside I] | 4%-6% |  |
| C=C1C[C@@]23CC[C@H]4[C@@](C)(CCC[C@@]4(C)C(=O)O[C@@H]4O[C@H](CO)[C@@H](O)[C@H](O[C@@H]5O[C@H](CO)[C@@H](O)[C@H](O)[C@H]5O)[C@H]4O[C@@H]4O[C@H](CO)[C@@H](O)[C@H](O)[C@H]4O)[C@@H]2CC[C@]1(O[C@@H]1O[C@H](CO)[C@@H](O)[C@H](O[C@@H]2O[C@H](CO)[C@@H](O)[C@H](O)[C@H]2O)[C@H]1O[C@@H]1O[C@H](CO)[C@@H](O)[C@H](O)[C@H]1O)C3 [Rebaudioside M, rebaudioside M] |  | 5-6 % sucrose |
